Data on 11 compounds can be found in ChEMBL document CHEMBL1201862, “PubChem BioAssay data set” (2004).

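All cell lines were grown in 96-well plates and treated with compound for 48 hours. GI50 = concentration required for 50% inhibition of growth.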 Calls of active or inactive are those of the source. Cut-off read from the data, not from the text of the source: active = GI50 up to about 1.1 µM and inactive = higher.

Test systems include 786-0; A498; A549; ACHN; DU-145; EKVX; HOP-62; Hs-578T; M14; MDA-MB-231; Malme-3M; NCI-H460; PC-3; RPMI-8226; SF-295; SK-MEL-5; SK-OV-3; SR; TK-10; SNB-75.
Common to all, as to test: growth of human tumour cells (NCI), 48 h

Regarding `Cc1ccsc1/C(S)=N\c1ccc(Cl)c(/C=N/OC(C)(C)C)c1`, the GI50 in the experiment on 786-0 is 20.9 µM (inactive); in the experiment on A498, 20.2 µM (inactive); with A549, 30.9 µM (inactive); in the experiment with ACHN it was 24.5 µM (inactive); in the experiment with DU-145, 25.5 µM (inactive); with EKVX, 24.6 µM (inactive). Further, the GI50 in the experiment on HOP-62 is 51.5 µM (inactive); in the experiment on Hs-578T, 29.7 µM (inactive); in the experiment on M14, 39 µM (inactive); in the experiment with MDA-MB-231, 21.2 µM (inactive); with Malme-3M it was 40.2 µM (inactive); in the experiment with NCI-H460, 20.3 µM (inactive). For the same compound, the GI50 with PC-3 was 34.4 µM (inactive); in the experiment on RPMI-8226, 26.4 µM (inactive); in the experiment with SF-295, 28.1 µM (inactive); with SK-MEL-5, 31.5 µM (inactive); in the experiment with SK-OV-3 it was > 100 µM (inactive); in the experiment on SR, 19.9 µM (inactive). For the same compound, in the experiment on TK-10, the GI50 was 16.6 µM (inactive).

As to `C=C1C(=O)O[C@@H]2C=C(C)C3=CC(=O)[C@](C)(C[C@H](OC(=O)/C(C)=C\C)[C@@H]12)O3`, the GI50 in the experiment with 786-0 was 0.374 µM (active); with A549, 1.73 µM (inactive); in the experiment with ACHN, 0.489 µM (active); with DU-145 it was 4.1 µM (inactive); with HOP-62, 3.14 µM (inactive); in the experiment on Hs-578T, 2.85 µM (inactive). Besides, the GI50 in the experiment on M14 was 0.644 µM (active); in the experiment on MDA-MB-231, 0.759 µM (active); in the experiment with NCI-H460 it was 2.18 µM (inactive); in the experiment on PC-3, 1.51 µM (inactive); with RPMI-8226, 0.2 µM (active); with SF-295, 2.42 µM (inactive). Moreover, the GI50 in the experiment with SK-MEL-5 is 0.542 µM (active); with SK-OV-3, 4.05 µM (inactive); in the experiment with SNB-75, 13.5 µM (inactive); in the experiment on SR, 0.201 µM (active).

On to `Cc1cccc(C)c1NC(=O)C(=O)CC(=O)c1sc(Nc2c(C)cccc2C)nc1C`, for which the GI50 with 786-0 was > 100 µM (inactive); in the experiment with A498, 86.7 µM (inactive); with A549, > 100 µM (inactive); with ACHN it was > 100 µM (inactive); with DU-145, > 100 µM (inactive); with EKVX, > 100 µM (inactive). The GI50 in the experiment with HOP-62, in the experiment on Hs-578T, with M14, with MDA-MB-231, with NCI-H460 and with PC-3 was > 100 µM (inactive) each time. Further, the GI50 with RPMI-8226 was > 100 µM (inactive); with SF-295 it was > 100 µM (inactive); in the experiment on SK-OV-3, > 100 µM (inactive); in the experiment on SNB-75, 22.7 µM (inactive); in the experiment on TK-10, > 100 µM (inactive).

Consider `COc1cccc(/N=N/C(=N/NC(=O)c2ccc(C)cc2)c2ccc(N(CCC#N)CCC#N)cc2OC)c1`, for which the GI50 was > 100 µM (inactive) in the experiment with 786-0; > 100 µM (inactive) in the experiment with A498; > 100 µM (inactive) in the experiment on A549; > 100 µM (inactive) in the experiment with ACHN; > 100 µM (inactive) in the experiment on DU-145; 22.9 µM (inactive) with EKVX. Also, the GI50 in the experiment on HOP-62 is > 100 µM (inactive); with Hs-578T it was > 100 µM (inactive); in the experiment on M14 it was > 100 µM (inactive); in the experiment on MDA-MB-231, > 100 µM (inactive); in the experiment on Malme-3M, > 100 µM (inactive); with NCI-H460, 3.76 µM (inactive). The GI50 is > 100 µM (inactive) in the experiment with PC-3; > 100 µM (inactive) in the experiment with RPMI-8226; 59 µM (inactive) in the experiment on SF-295; > 100 µM (inactive) with SK-MEL-5; > 100 µM (inactive) in the experiment on SK-OV-3; > 100 µM (inactive) with SR. Further, in the experiment with TK-10, the GI50 was 8.05 µM (inactive).

For the compound `Nc1ccn(C2OC(C(OC3OC(CO)C(O)C(N)C3O)C(O)C(O)C(O)C(O)CO)C(N)C(O)C2O)c(=O)n1` (stereo not given), the GI50 in the experiment on 786-0 is 35.5 µM (inactive); in the experiment with A498, > 100 µM (inactive); in the experiment with A549, > 100 µM (inactive); with ACHN, 21.7 µM (inactive); in the experiment with DU-145, > 100 µM (inactive); in the experiment on EKVX, > 100 µM (inactive). Moreover, the GI50 with HOP-62 was 20.7 µM (inactive); in the experiment on Hs-578T, 1.98 µM (inactive); with M14, 44 µM (inactive); in the experiment on MDA-MB-231, 6.44 µM (inactive); in the experiment with NCI-H460 it was 22 µM (inactive); with PC-3 it was 50.7 µM (inactive). Moreover, the GI50 in the experiment with RPMI-8226 is > 100 µM (inactive); with SF-295, 13.1 µM (inactive); in the experiment with SK-MEL-5, > 100 µM (inactive); with SR, 19.9 µM (inactive); in the experiment with TK-10, 85.9 µM (inactive).

Regarding `COc1cc(C=C2N=C(c3ccccc3)N(n3c(-c4ccccc4)nc4ccccc4c3=O)C2=O)cc(OC)c1OC`, the GI50 was 21.8 µM (inactive) with 786-0; 36.9 µM (inactive) in the experiment with A549; 28.7 µM (inactive) in the experiment on ACHN; 27.6 µM (inactive) with DU-145; 23.8 µM (inactive) in the experiment with EKVX; 13.6 µM (inactive) in the experiment with HOP-62. For the same compound, the GI50 with Hs-578T was 15.8 µM (inactive); with M14, 27.2 µM (inactive); in the experiment with MDA-MB-231, 21.9 µM (inactive); in the experiment on Malme-3M it was 19.3 µM (inactive); with NCI-H460, 20.3 µM (inactive); with PC-3 it was 31.1 µM (inactive). In addition, the GI50 with RPMI-8226 was > 10 µM (inactive); in the experiment with SF-295 it was 19.5 µM (inactive); in the experiment on SK-MEL-5, 23.4 µM (inactive); in the experiment with SK-OV-3 it was 35.4 µM (inactive); in the experiment on SNB-75, 23.1 µM (inactive); in the experiment on SR it was 40.7 µM (inactive). In the experiment on TK-10, the GI50 was 45.9 µM (inactive).

For `O=C1c2ccccc2C(=O)c2c(NCCNC(=O)C3CCCN3)ccc(NCCNC(=O)C3CCCN3)c21` (stereo not given), the GI50 with 786-0 was 0.219 µM (active); in the experiment with A549 it was > 100 µM (inactive); with ACHN, 53.7 µM (inactive); in the experiment on DU-145, 70.1 µM (inactive); in the experiment on EKVX it was > 100 µM (inactive); in the experiment with HOP-62, 45 µM (inactive). Further, the GI50 with Hs-578T is 37.1 µM (inactive); with M14, > 100 µM (inactive); in the experiment with MDA-MB-231, 23.7 µM (inactive); with Malme-3M it was 95.9 µM (inactive); in the experiment on PC-3, 67.9 µM (inactive); in the experiment on RPMI-8226, 22.6 µM (inactive). The GI50 in the experiment with SF-295 is > 100 µM (inactive); in the experiment with SK-MEL-5, 88.5 µM (inactive); with SK-OV-3 it was > 100 µM (inactive); in the experiment with SNB-75, 53.3 µM (inactive); with SR, 22 µM (inactive); with TK-10, > 100 µM (inactive).

`NC(C(F)(F)F)(C(F)(F)F)P(=O)(Cc1ccccc1)Cc1ccccc1`: the GI50 in the experiment on 786-0 was 66.1 µM (inactive); with A549, > 100 µM (inactive); with ACHN, > 100 µM (inactive); in the experiment on DU-145, > 100 µM (inactive); with EKVX, > 100 µM (inactive); in the experiment with HOP-62, 83.2 µM (inactive). The GI50 was 58.1 µM (inactive) with Hs-578T; > 100 µM (inactive) in the experiment on M14; > 100 µM (inactive) with MDA-MB-231; > 100 µM (inactive) in the experiment on Malme-3M; > 100 µM (inactive) with NCI-H460; > 100 µM (inactive) in the experiment with PC-3. The GI50 with RPMI-8226 is > 100 µM (inactive); with SF-295, > 100 µM (inactive); in the experiment with SK-MEL-5, > 100 µM (inactive); with SK-OV-3, > 100 µM (inactive); with SNB-75, 55.6 µM (inactive); in the experiment on SR, > 100 µM (inactive). Further, the GI50 in the experiment on TK-10 was > 100 µM (inactive).

`Nc1nc(Cl)cc(Nc2cc(Cl)cc(Cl)c2)n1`: the GI50 is 17.4 µM (inactive) in the experiment with 786-0; 25.9 µM (inactive) in the experiment on A498; 24.8 µM (inactive) in the experiment with A549; 24.9 µM (inactive) in the experiment with ACHN; 26.1 µM (inactive) in the experiment with DU-145; 21.3 µM (inactive) with EKVX. Besides, the GI50 was 29.2 µM (inactive) with HOP-62; 16.8 µM (inactive) in the experiment on Hs-578T; 19.3 µM (inactive) in the experiment with M14; 20 µM (inactive) in the experiment on MDA-MB-231; 22.3 µM (inactive) in the experiment on Malme-3M; 18.2 µM (inactive) in the experiment with NCI-H460. In addition, the GI50 in the experiment with PC-3 was 19.7 µM (inactive); with RPMI-8226 it was 33 µM (inactive); with SF-295 it was 21.1 µM (inactive); with SK-MEL-5 it was 19.8 µM (inactive); in the experiment on SK-OV-3, 19.5 µM (inactive); in the experiment on SNB-75, 21.7 µM (inactive). Also, in the experiment on TK-10, the GI50 is 20.4 µM (inactive).

Consider `C/C=C/C1OC(O)(C(C)C(O)[C@H](C)C2OC(=O)/C(OC)=C/C(C)=C/[C@@H](C)[C@@H](O)[C@@H](C)C(O)C(C)C/C(C)=C/C=C/C2OC)C[C@@H](OC2CC(O)C(OC(N)=O)C(C)O2)C1C` (stereo not given in full), for which the GI50 in the experiment on 786-0 was < 0.01 µM (active); in the experiment on A498, 0.131 µM (active); with A549, < 0.01 µM (active); with ACHN, < 0.01 µM (active); in the experiment on DU-145 it was < 0.01 µM (active); with EKVX it was < 0.01 µM (active). The GI50 in the experiment with HOP-62 was < 0.01 µM (active); in the experiment with Hs-578T, 0.889 µM (active); with M14 it was < 0.01 µM (active); in the experiment with MDA-MB-231, < 0.01 µM (active); in the experiment on Malme-3M, < 0.01 µM (active); in the experiment on NCI-H460 it was < 0.01 µM (active). The GI50 is < 0.01 µM (active) in the experiment on PC-3; < 0.01 µM (active) in the experiment on RPMI-8226; < 0.01 µM (active) in the experiment with SF-295; < 0.01 µM (active) in the experiment with SK-MEL-5; 2.47 µM (inactive) in the experiment with SK-OV-3; < 0.01 µM (active) with SNB-75. In the experiment on TK-10, the GI50 was < 0.01 µM (active).

Regarding `Cn1cnc(N2CCCC2)c(C#N)c1=O`, the GI50 with 786-0, in the experiment on A498, in the experiment on A549, with ACHN, with DU-145 and in the experiment with EKVX was > 100 µM (inactive) each time. Moreover, the GI50 in the experiment on HOP-62, in the experiment on Hs-578T, with M14, in the experiment on MDA-MB-231, in the experiment on Malme-3M and with NCI-H460 was > 100 µM (inactive) each time. In addition, the GI50 in the experiment on PC-3, in the experiment on RPMI-8226, in the experiment on SF-295, with SK-MEL-5, with SR and in the experiment with TK-10 was > 100 µM (inactive) throughout.
